We go through eight compounds from PubChem BioAssay AID1745844 (Carcinogenic Potency Database (CPDB), 2022).

For the series, the system named is rodent lifetime carcinogenesis bioassay, tumor incidence TD50. Briefly: chronic cancer bioassays in animals – CPDB, compiled studies (AID 1745844).
Setting [1] is: mouse, strain B6C3F1, females, in feed, site: any site (literature study), lesion: several types, types named in the paper, dosed 103 weeks, study length 103 weeks.
Where [2] appears, read: mouse, strain B6C3F1, females, in feed, site: liver, lesion: hepatocellular adenoma + hepatocellular carcinoma + neoplastic nodule, dosed 103 weeks, study length 103 weeks.
Setting [3] is: mouse, strain B6C3F1, males, in feed, site: liver, lesion: hepatocellular adenoma + hepatocellular carcinoma + neoplastic nodule, dosed 103 weeks, study length 103 weeks.

The source made the active and inactive calls. No rule for the calls is given here.

In general, TD50 refers to the dose at which the toxic effect under study appears in half of the subjects. For the compound `Nc1ccc2cc3ccc(N)cc3nc2c1`, the TD50 is, setting by setting: under setting [1], 86.2 mg/kg/day; under setting [2], 26.4 mg/kg/day; (mouse, strain B6C3F1, females, in feed, site: liver, lesion: hepatocellular adenoma + hepatocellular carcinoma, dosed 103 weeks, study length 103 weeks) 26.4 mg/kg/day; (mouse, strain B6C3F1, females, in feed, site: lung, lesion: alveolar/bronchiolar adenoma + alveolar/bronchiolar carcinoma, dosed 103 weeks, study length 103 weeks) 487 mg/kg/day; under setting [3], 248 mg/kg/day; (rat, strain Fischer 344, males, in feed, site: large intestine + small intestine, lesion: sarcoma, NOS + adenocarcinoma, NOS + leiomyosarcoma, dosed 109 weeks, study length 109 weeks) 213 mg/kg/day. Besides, the TD50 runs as follows: (rat, strain Fischer 344, males, in feed, site: liver, lesion: hepatocellular adenoma + hepatocellular carcinoma + neoplastic nodule, dosed 109 weeks, study length 109 weeks) 254 mg/kg/day; (rat, strain Fischer 344, males, in feed, site: liver, lesion: hepatocellular carcinoma + neoplastic nodule, dosed 109 weeks, study length 109 weeks) 254 mg/kg/day.
With `O=NN1CCCCCC1`, the TD50 (mouse, strain BALB/c, females, by gavage, site: esophagus, lesion: squamous-cell papilloma, dosed 30 weeks, study length 49 weeks) was determined as 19.7 mg/kg/day; the TD50 (mouse, strain BALB/c, females, by gavage, site: liver, lesion: several types, types named in the paper, dosed 30 weeks, study length 49 weeks) was 0.797 mg/kg/day; the TD50 (mouse, strain BALB/c, females, by gavage, site: lung, lesion: several types, types named in the paper, dosed 30 weeks, study length 49 weeks) was found to be 7.44 mg/kg/day; the TD50 (mouse, strain BALB/c, females, by gavage, site: nasal mucosa, lesion: several types, types named in the paper, dosed 30 weeks, study length 49 weeks) is 4.5 mg/kg/day; the TD50 (mouse, strain Charles River CD1, females, by gavage, site: esophagus, lesion: squamous-cell papilloma, dosed 30 weeks, study length 62 weeks) was found to be 12.7 mg/kg/day; the TD50 (mouse, strain Charles River CD1, females, by gavage, site: forestomach, lesion: several types, types named in the paper, dosed 30 weeks, study length 62 weeks) was 5.65 mg/kg/day. Also, the TD50 is 0.746 mg/kg/day (mouse, strain Charles River CD1, females, by gavage, site: liver, lesion: several types, types named in the paper, dosed 30 weeks, study length 62 weeks); 2.71 mg/kg/day (mouse, strain Charles River CD1, females, by gavage, site: lung, lesion: several types, types named in the paper, dosed 30 weeks, study length 62 weeks); 26 mg/kg/day (mouse, strain Charles River CD1, females, by gavage, site: nasal mucosa, lesion: one or several types, types not named, dosed 30 weeks, study length 62 weeks); 0.725 mg/kg/day (mouse, strain NZO/BlGd, females, in drinking water, site: esophagus, lesion: several types, types named in the paper, dosed 32 weeks, study length 74 weeks); 3.21 mg/kg/day (mouse, strain NZO/BlGd, females, in drinking water, site: liver, lesion: hepatocellular carcinoma, dosed 32 weeks, study length 74 weeks); 6.37 mg/kg/day (mouse, strain NZO/BlGd, females, in drinking water, site: oropharynx, lesion: several types, types named in the paper, dosed 32 weeks, study length 74 weeks). The TD50 reads like this: (mouse, strain NZO/BlGd, females, in drinking water, site: stomach, glandular, lesion: several types, types named in the paper, dosed 32 weeks, study length 74 weeks) 4.05 mg/kg/day; (mouse, strain NZO/BlGd, females, in drinking water, site: stomach, squamous, lesion: several types, types named in the paper, dosed 32 weeks, study length 74 weeks) 0.415 mg/kg/day; (mouse, strain NZO/BlGd, males, in drinking water, site: esophagus, lesion: several types, types named in the paper, dosed 32 weeks, study length 60 weeks) 0.313 mg/kg/day; (mouse, strain NZO/BlGd, males, in drinking water, site: liver, lesion: hepatocellular carcinoma, dosed 32 weeks, study length 60 weeks) 8.03 mg/kg/day; (mouse, strain NZO/BlGd, males, in drinking water, site: lung, lesion: several types, types named in the paper, dosed 32 weeks, study length 60 weeks) 1.93 mg/kg/day; (mouse, strain NZO/BlGd, males, in drinking water, site: oropharynx, lesion: several types, types named in the paper, dosed 32 weeks, study length 60 weeks) 1.41 mg/kg/day. Besides, the TD50 was 3.23 mg/kg/day (mouse, strain NZO/BlGd, males, in drinking water, site: stomach, glandular, lesion: several types, types named in the paper, dosed 32 weeks, study length 60 weeks); 0.448 mg/kg/day (mouse, strain NZO/BlGd, males, in drinking water, site: stomach, squamous, lesion: several types, types named in the paper, dosed 32 weeks, study length 60 weeks); 6.47 mg/kg/day (mouse, strain SENCAR, females, by gavage, site: esophagus, lesion: squamous-cell papilloma, dosed 30 weeks, study length 67 weeks); 2.25 mg/kg/day (mouse, strain SENCAR, females, by gavage, site: forestomach, lesion: several types, types named in the paper, dosed 30 weeks, study length 67 weeks); 1.92 mg/kg/day (mouse, strain SENCAR, females, by gavage, site: liver, lesion: several types, types named in the paper, dosed 30 weeks, study length 67 weeks); 0.783 mg/kg/day (mouse, strain SENCAR, females, by gavage, site: lung, lesion: several types, types named in the paper, dosed 30 weeks, study length 67 weeks). Where the note is “mouse, strain SENCAR, females, by gavage, site: nasal mucosa, lesion: several types, types named in the paper, dosed 30 weeks, study length 67 weeks”, the TD50 is 6.47 mg/kg/day.
For the compound `Cl[C@@H]1OCCO[C@H]1Cl`, the TD50 (mouse, strain Ha/ICR, females, i.p., site: lung, lesion: papillary tumor, dosed 64 weeks, study length 64 weeks) stood at 7.04 mg/kg/day.
On to `O.O=S(=O)(O)O.[Cd]`, for which the carcinogen call (mouse, strain Swiss, males, by gavage, site: liver, lesion: several types, types named in the paper, dosed 78 weeks, study length 78 weeks) was “negative (inactive)”. For the same compound, the TD50 was 1.78 mg/kg/day (inactive) (mouse, strain Swiss, males, by gavage, site: lung, lesion: several types, types named in the paper, dosed 78 weeks, study length 78 weeks) and 1.17 mg/kg/day (inactive) (rat, strain C.B. hooded, males, by gavage, site: liver, lesion: liver-cell adenoma, dosed 104 weeks, study length 114 weeks).
Turning to `NCCCCCCCCCCC(=O)O`, the TD50 reads like this: (mouse, strain B6C3F1, females, in feed, site: any site (literature study), lesion: several types, types named in the paper, dosed 103 weeks, study length 109 weeks) 15600 mg/kg/day (inactive); (mouse, strain B6C3F1, females, in feed, site: liver, lesion: hepatocellular adenoma + hepatocellular carcinoma + neoplastic nodule, dosed 103 weeks, study length 109 weeks) 37900 mg/kg/day; (mouse, strain B6C3F1, females, in feed, site: lung, lesion: alveolar/bronchiolar adenoma + alveolar/bronchiolar carcinoma, dosed 103 weeks, study length 109 weeks) 18800 mg/kg/day; (mouse, strain B6C3F1, males, in feed, site: all sites, lesion: malignant lymphoma, dosed 103 weeks, study length 109 weeks) 4970 mg/kg/day (inactive); (mouse, strain B6C3F1, males, in feed, site: any site (literature study), lesion: several types, types named in the paper, dosed 103 weeks, study length 109 weeks) 6500 mg/kg/day; (mouse, strain B6C3F1, males, in feed, site: liver, lesion: hepatocellular adenoma + hepatocellular carcinoma + neoplastic nodule, dosed 103 weeks, study length 109 weeks) 6250 mg/kg/day. Besides, the TD50 is 1250 mg/kg/day (inactive) (rat, strain Fischer 344, females, in feed, site: any site (literature study), lesion: several types, types named in the paper, dosed 104 weeks, study length 109 weeks); 44600 mg/kg/day (rat, strain Fischer 344, females, in feed, site: liver, lesion: hepatocellular adenoma + hepatocellular carcinoma + neoplastic nodule, dosed 104 weeks, study length 109 weeks); 802 mg/kg/day (rat, strain Fischer 344, males, in feed, site: any site (literature study), lesion: several types, types named in the paper, dosed 104 weeks, study length 109 weeks); 833 mg/kg/day (rat, strain Fischer 344, males, in feed, site: liver + urinary bladder, lesion: hepatocellular carcinoma + neoplastic nodule + transitional-cell carcinoma, dosed 104 weeks, study length 109 weeks); 1100 mg/kg/day (rat, strain Fischer 344, males, in feed, site: liver, lesion: hepatocellular adenoma + hepatocellular carcinoma + neoplastic nodule, dosed 104 weeks, study length 109 weeks); 1100 mg/kg/day (rat, strain Fischer 344, males, in feed, site: liver, lesion: hepatocellular carcinoma + neoplastic nodule, dosed 104 weeks, study length 109 weeks). Also, the TD50 reads like this: (rat, strain Fischer 344, males, in feed, site: liver, lesion: neoplastic nodule, dosed 104 weeks, study length 109 weeks) 1290 mg/kg/day; (rat, strain Fischer 344, males, in feed, site: mammary gland, lesion: fibroadenoma, dosed 104 weeks, study length 109 weeks) 2910 mg/kg/day; (rat, strain Fischer 344, males, in feed, site: urinary bladder, lesion: transitional-cell carcinoma, dosed 104 weeks, study length 109 weeks) 3170 mg/kg/day.
Regarding `CC1=C(CC(=O)O)c2cc(F)ccc2/C1=C\c1ccc(S(C)(=O)=O)cc1`, the carcinogen call (rat, strain Fischer 344, males, in feed, site: colon, lesion: one or several types, types not named, dosed 53 weeks, study length 53 weeks) was “negative (inactive)”.
For the compound `Cc1cccc(Nc2cc(Cl)nc(SCC(=O)NCCO)n2)c1C`, the TD50 (mouse, strain CSb, females, in feed, site: liver, lesion: hepatocellular carcinoma, dosed 82 weeks, study length 82 weeks) was 44.6 mg/kg/day and the TD50 (rat, strain Fischer 344, males, in feed, site: liver, lesion: hepatocellular carcinoma, dosed 75 weeks, study length 82 weeks) was 6.49 mg/kg/day.
Regarding `Brc1c(Br)c(Br)c(Oc2c(Br)c(Br)c(Br)c(Br)c2Br)c(Br)c1Br`, the carcinogen call under setting [1] was “negative (inactive)”; the carcinogen call (rat, strain Sprague-Dawley Spartan, females, in feed, site: liver, lesion: hepatocellular tumor, dosed 105 weeks, study length 105 weeks) is “negative (inactive)”; the carcinogen call (rat, strain Sprague-Dawley Spartan, males, in feed, site: any site (literature study), lesion: several types, types named in the paper, dosed 100 weeks, study length 100 weeks) was “negative (inactive)”; the carcinogen call (rat, strain Sprague-Dawley Spartan, males, in feed, site: liver, lesion: hepatocellular tumor, dosed 100 weeks, study length 100 weeks) is “negative (inactive)”. Also, the TD50 reads like this: under setting [2], 33400 mg/kg/day; (mouse, strain B6C3F1, males, in feed, site: any site (literature study), lesion: several types, types named in the paper, dosed 103 weeks, study length 103 weeks) 9060 mg/kg/day; under setting [3], 11200 mg/kg/day; (mouse, strain B6C3F1, males, in feed, site: liver, lesion: hepatocellular adenoma + hepatocellular carcinoma, dosed 103 weeks, study length 103 weeks) 11200 mg/kg/day; (mouse, strain B6C3F1, males, in feed, site: thyroid gland, lesion: follicular-cell adenoma + follicular-cell carcinoma, dosed 103 weeks, study length 103 weeks) 20500 mg/kg/day; (rat, strain Fischer 344, females, in feed, site: any site (literature study), lesion: several types, types named in the paper, dosed 103 weeks, study length 104 weeks) 4380 mg/kg/day. Besides, the TD50 (rat, strain Fischer 344, females, in feed, site: liver, lesion: hepatocellular adenoma + hepatocellular carcinoma + neoplastic nodule, dosed 103 weeks, study length 104 weeks) stood at 6580 mg/kg/day; the TD50 (rat, strain Fischer 344, females, in feed, site: liver, lesion: hepatocellular carcinoma + neoplastic nodule, dosed 103 weeks, study length 104 weeks) came out at 6580 mg/kg/day; the TD50 (rat, strain Fischer 344, females, in feed, site: liver, lesion: neoplastic nodule, dosed 103 weeks, study length 104 weeks) was 7740 mg/kg/day; the TD50 (rat, strain Fischer 344, males, in feed, site: any site (literature study), lesion: several types, types named in the paper, dosed 103 weeks, study length 104 weeks) stood at 2230 mg/kg/day; the TD50 (rat, strain Fischer 344, males, in feed, site: liver, lesion: hepatocellular adenoma + hepatocellular carcinoma + neoplastic nodule, dosed 103 weeks, study length 104 weeks) was 2220 mg/kg/day; the TD50 (rat, strain Fischer 344, males, in feed, site: liver, lesion: hepatocellular carcinoma + neoplastic nodule, dosed 103 weeks, study length 104 weeks) stood at 2220 mg/kg/day. Also, the TD50 was 2130 mg/kg/day (rat, strain Fischer 344, males, in feed, site: liver, lesion: neoplastic nodule, dosed 103 weeks, study length 104 weeks); 13900 mg/kg/day (rat, strain Fischer 344, males, in feed, site: pancreas, lesion: acinar-cell adenoma, dosed 103 weeks, study length 104 weeks); 0.987 mg/kg/day (inactive) (rat, strain Sprague-Dawley Spartan, females, in feed, site: any site (literature study), lesion: several types, types named in the paper, dosed 105 weeks, study length 105 weeks).
